Tests used:
[1] = Electronic absorption spectra in organic solvents; format: physicochemical
Experimental: (§1) The absorption and emission spectra of dyes solutions (in the range of 10^−6 to 10^−5 M) were recorded on CM 2203 spectrofluorometer (SOLAR) in a 10 mm of absorbing layer thickness at T = 25 ± 0.1 °C. The fluorescence quantum yield (φ), the fluorescence lifetime (τ), the rate constants of radiative processes (krad), and-radiative deactivation (knr) were obtained to use by the standard procedure. The fluorescence quantum yields (φ) of compounds were measured using the standard method (using standard Rhodamine 6G). The φ and τ errors were 10–15 %. The Stokes shift ( ΔλSt ) was calculated by the formula: […]

[2] = Luminescent characteristics (fluorescence) in organic solvents; format: physicochemical; conditions: for λmaxfl: λex 470 nm
Experimental: as §1

[3] = Photobleaching (photodegradation) under UV irradiation at 365 nm; format: physicochemical
Experimental: The photofading was carried out in quartz cells. The BODIPY solutions in cyclohexane (toluene, 1-octanol, DMSO with c = ~1·10^−5 mol·L^−1) were irradiated with monochromatic light (mercury lamp 250 W with a light filter Carl Zeiss JENA, at λ = 365 nm and room temperature). The area of the light flux was 2.02 cm^2 at a specific power W365 = 4.04 mW·cm^−2 of the UV lamp. The irreversible bleaching of the luminophores at the absorption peak was monitored as a function of time. The EAS of the dye solution was recorded at equal intervals of irradiation (through 5–20 min) on a spectrofluorometer SM2203 in the 300–600 nm wavelength range. The half-life (t1/2) was defined as the time during which the chromophore is destroyed by 50%. The error in determining of t1/2 is 3–5%.
The observed photooxidation rate constants (kobs) were determined by the equation ln(At/A0) = kobs∙t, where A0 and At are the initial and current optical density at the maximum of the long-wavelength absorption band, respectively, and t is the time of irradiation of the sample with UV light.

[4] = tested on: laboratory mice erythrocytes; test: Hemolytic activity (erythrotoxicity); format: cell-based; conditions: 20 µM, entire incubation period 5 h, 37 °C, PBS pH 7.4
Experimental: A 0.5% (v/v) suspension of laboratory mice erythrocytes in phosphate-buffered saline (PBS, pH 7.4) was used. The hemolytic activity (erythrotoxicity) of the compounds 2 and 6 was assessed by the degree of erythrocyte hemolysis 1, 3, and 5 h after the addition of solutions of the test compounds in DMSO (final concentration 20 μM). The erythrocyte suspension was incubated in a thermostatic shaker Biosan ES-20 with slow stirring at 37 °C temperature for 5 h. After 1, 3, and 5 h, an aliquot was taken, centrifuged, the degree of hemolysis was determined by the hemoglobin content in the supernatant on a Thermo Spectromic Genesys 20 spectrophotometer at λ = 541 nm. The percentage of hemolysis was calculated relative to the total hemolysis of the sample.

[5] = tested on: laboratory mice erythrocytes; test: Penetration into RBC (fluorescence of hemolysates and of residual medium); format: cell-based
Experimental: To assess the rate of penetration of the BODIPY 2 and its conjugate with a thioterpenoid 6 into RBC, the compounds were added to a suspension of erythrocytes (final concentration 20 μM) and incubated in a thermostatic shaker Biosan ES-20 with slow stirring at 37 °C. After 10, 30, and 60 min, an aliquot was taken and centrifuged to separate erythrocytes from the incubation medium containing the BODIPY 2 or conjugate 6. Erythrocytes were washed three times with PBS, hemolyzed by adding H2O, DMSO was added, and the fluorescence spectra of hemolysates were studied using a Fluorat-02-Panorama spectrofluorometer (Lumex, Saint Petersburg, Russia). The binding of the BODIPY 2 or conjugate 6 to cells was judged from the fluorescence intensity of the corresponding compounds in hemolysates. DMSO was added to the medium (PBS) remaining after cell incubation, and the corresponding fluorescence spectra were also analyzed. Its intensity was used to judge the residual content of the studied compounds in PBS.

RBC = test: Uptake by erythrocytes visualized with CytoFLEX; format: cell-based, mice; conditions: 0.1 µM, 10 min, 488/521 nm λex/λem
Experimental: The uptake of compounds by erythrocytes was visualized using CytoFLEX SRT (Beckman Coulter) (0.2% suspension of RBC, compound concentration 0.1 μM), exposure time 10 min. Each experiment was carried out in 5–15 replicates. Statistical analysis was conducted using Microsoft Office Excel 2007 software packages. The data represent the mean ± SE.

[6] = Solubility in water / micellar solution (NMR samples); format: physicochemical; conditions: DPC micelles, D2O
[7] = range over the solvents studied

CC1=CC(C)=[N+]2C1=C(CCCC(=O)OCCSC1CC3CCC1(C)C3(C)C)c1c(C)cc(C)n1[B-]2(F)F (stereo not shown) [Compound 6]
ε, molar absorption coefficient ([1]; 1-butanol): 66887 L/mol/cm | λmaxabs S0→S1 ([1]; 1-butanol): 501 nm | λmaxabs S0→S2 ([1]; 1-butanol): 355–366 nm | ε, molar absorption coefficient ([1]; 1-octanol): 68275 L/mol/cm | λmaxabs S0→S1 ([1]; 1-octanol): 501 nm | λmaxabs S0→S2 ([1]; 1-octanol): 355–363 nm | ε, molar absorption coefficient ([1]; 1-propanol): 68931 L/mol/cm | λmaxabs S0→S1 ([1]; 1-propanol): 500 nm | λmaxabs S0→S2 ([1]; 1-propanol): 356–361 nm | ε, molar absorption coefficient ([1]; DMF): 70218 L/mol/cm | λmaxabs S0→S1 ([1]; DMF): 499 nm | λmaxabs S0→S2 ([1]; DMF): 357–361 nm | ε, molar absorption coefficient ([1]; DMSO): 68188 L/mol/cm | λmaxabs S0→S1 ([1]; DMSO): 500 nm | λmaxabs S0→S2 ([1]; DMSO): 355–360 nm | extinction coefficient ɛ, range ([1]; at 498–503 nm, organic solvents, in L/mol·cm): 64,000–78,000 | ε, molar absorption coefficient ([1]; chloroform): 76900 L/mol/cm | λmaxabs S0→S1 ([1]; chloroform): 503 nm | λmaxabs S0→S2 ([1]; chloroform): 352–363 nm | ε, molar absorption coefficient ([1]; cyclohexane): 75390 L/mol/cm | λmaxabs S0→S1 ([1]; cyclohexane): 502 nm | λmaxabs S0→S2 ([1]; cyclohexane): 357–362 nm | ε, molar absorption coefficient ([1]; ethanol): 64235 L/mol/cm | λmaxabs S0→S1 ([1]; ethanol): 498 nm | λmaxabs S0→S2 ([1]; ethanol): 359–361 nm | ε, molar absorption coefficient ([1]; toluene): 78830 L/mol/cm | λmaxabs S0→S1 ([1]; toluene): 503 nm | λmaxabs S0→S2 ([1]; toluene): 352–360 nm | ΔλSt, Stokes shift ([2]; 1-butanol): 15 nm | φ, fluorescence quantum yield ([2]; 1-butanol): 0.884 | λmaxfl ([2]; 1-butanol): 516 nm | ΔλSt, Stokes shift ([2]; 1-octanol): 13 nm | φ, fluorescence quantum yield ([2]; 1-octanol): 0.941 | λmaxfl ([2]; 1-octanol): 514 nm | ΔλSt, Stokes shift ([2]; 1-propanol): 14 nm | φ, fluorescence quantum yield ([2]; 1-propanol): 0.861 | λmaxfl ([2]; 1-propanol): 514 nm | ΔλSt, Stokes shift ([2]; DMF): 16 nm | φ, fluorescence quantum yield ([2]; DMF): 0.833 | increase of nonradiative deactivation constant knr ([2]; DMF and DMSO compared to cyclohexane): 200–300 times | λmaxfl ([2]; DMF): 515 nm | ΔλSt, Stokes shift ([2]; DMSO): 15 nm | φ, fluorescence quantum yield ([2]; DMSO): 0.763 | λmaxfl ([2]; DMSO): 515 nm | fluorescence quantum yield φ, range ([2]; at 514–519 nm, organic solvents): 76–100% | ΔλSt, Stokes shift ([2]; chloroform): 14 nm | φ, fluorescence quantum yield ([2]; chloroform): 0.878 | λmaxfl ([2]; chloroform): 517 nm | ΔλSt, Stokes shift ([2]; cyclohexane): 13 nm | φ, fluorescence quantum yield ([2]; cyclohexane): 0.999 | λmaxfl ([2]; cyclohexane): 515 nm | fluorescence quenching ([2]; electron-donating media): 16–24% | ΔλSt, Stokes shift ([2]; ethanol): 16 nm | φ, fluorescence quantum yield ([2]; ethanol): 0.857 | increase of fluorescence quantum yield in the homologous series of alcohols ([2]; ethanol, 1-propanol, 1-butanol, 1-octanol): ~ 8% | λmaxfl ([2]; ethanol): 514 nm | constants of radiative processes (krad) [2, 7]: 5.96–8.33 × 10^7 s^−1 | fluorescence lifetime [2, 7]: 10.2–16.0 ns | ΔλSt, Stokes shift ([2]; toluene): 16 nm | φ, fluorescence quantum yield ([2]; toluene): 0.867 | λmaxfl ([2]; toluene): 519 nm | emission band maxima λmaxfl, range ([2]; λex = 470 nm, all solvents): 510–519 nm | increase of photodegradation (photooxidation) efficiency in DMSO ([3]; DMSO compared to cyclohexane): > 10 times | increase of photostability compared to the meso-unsubstituted analog ([3]; UV irradiation): ~ 2 times | half-life increase / photodestruction rate constant decrease compared to 7 ([3]; studied solvents): 1.5–2.2 times | hemolysis of RBC (erythrotoxicity) [4]: did not exceed the spontaneous level | penetration into erythrocytes (fluorescence of RBC hemolysates) ([5]; 20 μM, 10, 30, 60 min incubation, RBC washed three times with PBS): actively penetrates erythrocytes | absorption by RBC from the incubation medium (decline of supernatant fluorescence) ([5]; 20 μM, 60 min incubation, PBS): more intensively than the initial BODIPY 2 | relative content of BODIPY-positive cells (RBC): more than an order of magnitude higher

CC1(C)C2CC=C(CO)C1C2 (stereo not shown) [myrtenol]
solubility in the micellar solution [6]: better solubility
